Key:
[1] = tested on: cultured hippocampal neurons; assay: Synaptic clustering of NR2B, PSD-95 and synapsin by immunocytochemistry; assay type: cell-based, rat; details: 10 μM for 4 days from 10 DIV; compared to untreated cells
Protocol: (§1) Cultures of dissociated hippocampal neurons from embryonic day 18 rats were prepared as previously described (51). Cultured neurons at 10 days in vitro (DIV) were exposed to arginine N-methyltransferase inhibitor-1 (AMI-1; 2.5 or 10 μM, Enzo Life Sciences) in plating media minus additional glutamate for the indicated times.
(§2) To identify the effects of genetic knock-down of CARM1 on dendritic morphology and synaptic clustering of synapsin, NR2B, and PSD-95, hippocampal neurons were first transfected with the construct pCAG-mGFP-Actin [a gift from Ryohei Yasuda (Addgene plasmid #21948)] at 7 DIV with Lipofectamine 2000 (Invitrogen) following the manufacturer's protocol. After a 2-day incubation, neurons were untreated or transduced with rat CARM1- or PRMT1-specific siRNA or scrambled control siRNA lentiviral particles (5×10^3 viral particles/μl, Santa Cruz) at a multiplicity of infection (MOI) of 4 to ensure efficient infection following the manufacturer's protocol, followed by overnight incubation. After a media change with plating media minus glutamate, cells were incubated for an additional 4 days, and then a portion of the cells was either lysed and used for total RNA isolation and RT-qPCR experiments, lysed and used for immunoblot analysis, or fixed for immunocytochemical analysis.
(§3) Cultures neurons were treated as described above and then fixed in 2% paraformaldehyde/4% sucrose/PBS for 10 min at room temperature (RT) followed by methanol for 20 min at −20° C. The fixed neurons were incubated in preblock buffer (20 mM phosphate buffer, pH 7.4, 5% normal goat serum, 0.05% Triton X-100, and 450 mM NaCl) at 4° C. overnight with the following primary antibodies: mouse anti-CARM1 (1:200, Cell Signaling), rabbit anti-CARM1 (1:200, Cell Signaling), rabbit anti-NR2B (1:200, Millipore), mouse anti-NR2B (1:150, Thermo Fisher), mouse anti-PSD-95 (1:100, Cell Signaling), mouse anti-synapsin (1:200, Santa Cruz), or rabbit anti-synapsin (1:250, Millipore), followed by incubation with the appropriate secondary antibodies (Alexa 488-anti-rabbit or 546-anti-mouse; each at 1:1000, Invitrogen) in preblock buffer at RT for 1 hr. After immunostaining, the cells were mounted as previously described (50) and viewed on a Zeiss LSM 710 laser-scanning confocal microscope. Images were acquired under a 63× or 100× oil immersion objective lens and scanned for further analysis.
(§4) Confocal microscope images for each treatment from each of 3 independent sets of experiments were imported into Image J (NIH) software. To determine the proportion of CARM1 signal that co-localizes with PSD-95 or synapsin, Image J (NIH) software was used with Just Another Colocalization (JACoP) plugin set. A Mander's coefficient was calculated and the average value (N=10) was further analyzed. Dendritic spine length (from dendritic shaft to the top of spine head) and dendritic spine width (diameter of the widest part of spine head) were measured and dendritic spine density (number of spines/10 μm of dendrite) was also counted. Dendritic spine shape (stubby, mushroom, or filopodium) was identified as described in previous research (5, 21). After measuring spine length (the distance from the base of the neck to the furthest point on the spine heads) and diameter of spine head and neck, the ratio from each spine was calculated and compared. […] Mushroom spines were judged if the diameter of the head was three times larger than the diameter of their necks. Stubby spines were judged if the diameter of the neck was similar to the total length of the spine.

[2] = tested on: cultured hippocampal neurons; assay: Dendritic spine morphology of GFP-Actin transfected neurons by confocal microscopy; assay type: cell-based, rat; details: for spine head width: untreated 0.753±0.038 μm; for spine length: untreated 1.819±0.064 μm; for spine density: untreated 4.58±0.43
Protocol: as §1, §2, §3, §4

HuD-mRNA binding = details: hippocampal neurons in vitro; previous studies (ref. 22); cited from earlier work
[3] = inhibitor treatment for 4 days, compared with untreated

O=C(Nc1ccc2c([O-])cc(S(=O)(=O)[O-])cc2c1)Nc1ccc2c([O-])cc(S(=O)(=O)[O-])cc2c1.[Na+].[Na+].[Na+].[Na+] [AMI-1, 7,7′-(carbonylbis(azanediyl))bis(4-oxidonaphthalene-2-sulfonate), sodium salt]
NR2B number of clusters [1]: increase | NR2B synaptic cluster size [1]: increase | PSD-95 number of clusters [1]: increase | PSD-95 synaptic cluster size [1]: increase | synapsin synaptic cluster number [1]: no difference | synapsin synaptic cluster size [1]: no difference | spine head width ([2]; 2.5 μM for 4 days from 10 DIV): 0.899±0.052 μm | spine length ([2]; 2.5 μM for 4 days from 10 DIV): 1.748±0.093 μm | spine density ([2]; 2.5 μM for 4 days from 10 DIV): 4.49±0.54 spines per 10 μm dendrite | spine head width ([2]; 10 μM for 4 days from 10 DIV, P=0.0085): 0.982±0.044 μm | spine length ([2]; 10 μM for 4 days from 10 DIV, not statistically significant): 1.634±0.072 μm | spine density ([2]; 10 μM for 4 days from 10 DIV, no significant difference): 5.54±0.62 spines per 10 μm dendrite | proportion of filopodia-type, including thin-type, spines [2, 3]: dramatic decrease | proportion of mushroom-type spines [2, 3]: significantly increased | HuD-mRNA binding and the stability and expression of NTFs, including BDNF (HuD-mRNA binding): increased

Reference: patent US20190054070A1, “Methods and Compositions for Regenerative Synaptogenesis” (priority 2017, published 2019)
